Results taken from publication PMC11451537, “P2X7 receptors exhibit at least three modes of allosteric antagonism” (Science Advances, 2024).
Residue numbers refer to the chain shown, from its start.

How the values were obtained:
rP2X7-K297V = molecular target: T1, rP2X7-K297V (Rattus norvegicus, UniProt Q64663, K297V); assay: TEVC inhibition dose-response, rP2X7-K297V mutant; type: cell-based; conditions: signals evoked by 300 μM ATP, read-out: IC50 (inhibitory potency), K297V
T1 sequence (Q64663 1-595 K297V): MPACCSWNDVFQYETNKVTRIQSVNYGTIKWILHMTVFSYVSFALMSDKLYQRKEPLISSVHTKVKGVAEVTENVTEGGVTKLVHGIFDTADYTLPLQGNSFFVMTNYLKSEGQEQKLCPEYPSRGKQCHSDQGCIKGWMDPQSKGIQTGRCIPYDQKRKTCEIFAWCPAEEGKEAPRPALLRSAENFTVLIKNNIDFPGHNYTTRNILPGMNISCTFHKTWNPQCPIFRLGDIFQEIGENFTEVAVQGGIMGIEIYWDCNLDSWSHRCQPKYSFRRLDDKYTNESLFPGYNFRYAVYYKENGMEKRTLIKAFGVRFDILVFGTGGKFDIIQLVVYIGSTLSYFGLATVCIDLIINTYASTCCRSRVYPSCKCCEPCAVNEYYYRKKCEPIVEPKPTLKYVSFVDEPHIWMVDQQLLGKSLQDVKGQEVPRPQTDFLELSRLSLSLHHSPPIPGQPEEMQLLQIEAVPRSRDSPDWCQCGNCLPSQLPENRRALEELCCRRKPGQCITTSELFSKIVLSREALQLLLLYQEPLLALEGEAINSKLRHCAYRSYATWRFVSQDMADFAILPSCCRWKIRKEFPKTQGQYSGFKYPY
Text: Structural determination of the full-length, wild-type rP2X7 was completed using a construct previously described containing no truncations or mutations ([16]). Furthermore, the rP2X7-WT construct used for electrophysiology experiments is unmodified full-length, wild-type rP2X7 with no green fluorescent protein (GFP), protease sites, or affinity tags present. The hP2X1-WT, hP2X2-WT, hP2X3-WT, hP2X4-WT, and hP2X7-WT constructs used for electrophysiology are similarly unmodified full-length, wild-type receptor constructs with no GFP, protease sites, or affinity tags present. Mutations to the rP2X7-WT construct used for electrophysiology experiments were made directly in the pcDNA3.1x plasmid. These constructs included the following: rP2X7-K297A, rP2X7-K297G, rP2X7-K297M, rP2X7-K297Q, rP2X7-K297V, rP2X7-Y298A, rP2X7-Y298G, rP2X7-Y298V, rP2X7-Y298L, rP2X7-R316A, rP2X7-R316G, rP2X7-R316Q, rP2X7-R316H, rP2X7-F88A, rP2X7-F103A, and rP2X7-Y295A.
(§1) To evaluate the inhibitory response of an antagonist for a dilution series, an initial excitatory signal was evoked at a subtype-specific concentration of ATP. Next, the antagonist was applied at a test concentration for 60 s and then coapplied at the same test concentration of the antagonist with the identical subtype-specific concentration of ATP. The antagonized signal was then normalized against the preceding excitatory signal evoked by ATP for each individual oocyte tested. The pre- and post-antagonist signals were evoked by 10 μM ATP for hP2X1, 10 μM ATP for hP2X2, 1 μM ATP for hP2X3, 50 μM ATP for hP2X4, and 100 μM ATP for P2X7. For the K297V mutation in rP2X7, pre- and post-antagonist signals were evoked by 300 μM ATP. Each dataset was then fit to a nonlinear regression named “[inhibitor] vs. response – Variable slope (four parameters)” in GraphPad Prism 9 to produce a sigmoidal curve and afford an IC50 value. Each singular condition was used to generate an average which is reported plus or minus its SD between three discrete trials.

rP2X7 [1] = molecular target: T2, rP2X7 (Rattus norvegicus, UniProt Q64663); assay: TEVC recovery of current after complete inhibition (IC100), rP2X7; conditions: 120 s buffer wash, 100 μM ATP
T2 sequence (Q64663 1-595): T1 sequence (Q64663 1-595 K297V) with V297K
Experimental: Ecocyte Bioscience supplied defolliculated oocytes which were promptly resuspended in modified Barth’s solution containing the following: 88 mM NaCl, 1 mM KCl, 0.82 mM MgSO4, 0.33 mM Ca(NO3)2·4H2O, 0.41 mM CaCl2·2H2O, 2.4 mM NaHCO3, and 5 mM Hepes supplemented with amikacin 250 (mg/liter) and gentamycin (150 mg/liter). Xenopus laevis oocytes were then injected with either hP2X1 (50 nl of 100 ng/μl), hP2X2 (50 nl of 50 ng/μl), hP2X3 (50 nl of 400 ng/μl), hP2X4 (50 nl of 200 ng/μl), hP2X7 (50 nl of 10 ng/μl), or rP2X7 (50 nL of 20 ng/μl or 50 ng/μl) mRNA created from linearized full-length, wild-type or mutant pcDNA 3.1x according to the protocol provided in the mMESSAGE mMACHINE kit (Invitrogen). After injection, the oocytes were allowed to express protein for ~20 hours before recording was performed. Oocytes expressing hP2X4 were allowed to express protein for ~48 hours.
All TEVC data were acquired with an Ooctye Clamp OC-725C amplifier, pClamp 8.2 software, and a gravity-fed RSC-200 Rapid Solution Changer that flowed buffer at ~5 ml/min. For recording, Sutter filamented glass (10 cm in length with an inner diameter of 0.69 mm and an outer diameter of 1.2 mm) was used to impale oocytes and clamp the holding voltage at −60 mV. Recordings for hP2X1, hP2X2, hP2X7, and rP2X7 were performed in buffer with the following: 100 mM NaCl, 2.5 mM KCl, 0.1 mM EDTA, 0.1 mM flufenamic acid, and 5 mM Hepes at pH 7.4. Recordings for hP2X3 and hP2X4 were performed in buffer with the following: 10 mM Hepes (pH 7.4), 140 mM NaCl, 5 mM KCl, 2 mM CaCl2, 2 mM MgCl2, and 10 mM glucose. For TEVC experiments with P2X7, oocytes expressing hP2X7 or rP2X7 were facilitated with 100 μM ATP before recording the final data.
After testing an oocyte with a brief 100 μM ATP excitatory current, an antagonist is applied for 40, 120, or 240 s at IC100 calculated from IC50 values. The oocyte is then treated with 20 s of antagonist at the IC100 plus 100 μM ATP to see complete antagonism. This is followed by 120 s of washing with buffer, ending with a 20-s reapplication of 100 μM ATP. The signal after the reapplication of ATP was then compared to the initial excitatory current to afford a percentage of recovery of activation after complete antagonism. Experiments were run in triplicate. Trials were averaged and errors were reported as SD.

rP2X7 [2] = molecular target: T2, rP2X7; assay: TEVC inhibition dose-response (IC50), wild-type rP2X7 in Xenopus laevis oocytes; type: cell-based; parameters: the rP2X7-WT construct used for electrophysiology experiments is unmodified full-length, wild-type rP2X7; expressed in transfected cells; host or cells: Xenopus laevis oocytes injected with mRNA made from pcDNA3.1x; conditions: for IC100 (100% inhibitory concentration): calculated from IC50 values, concentration applied in the recovery experiments; for IC50: wild-type rP2X7, TEVC, 100 μM ATP, 60 s antagonist pre-application, mean ± SD, triplicate
Text: as §1

Row | Compound | IC50 (rP2X7-K297V) [µM] | Recovery of activation (% of baseline current) (rP2X7 [1]; rP2X7, 40-s IC100 application) [%] | Recovery of activation (% of baseline current) (rP2X7 [1]; rP2X7, 120-s IC100 application) [%] | Recovery of activation (% of baseline current) (rP2X7 [1]; rP2X7, 240-s IC100 application) [%] | IC100 (100% inhibitory concentration) (rP2X7 [2]) [µM] | IC50 (rP2X7 [2]) [µM]
1 | O=C(NCC1(N2CCN(c3ccccc3)CC2)CCOCC1)c1cccnc1Sc1ccccc1 [JNJ47965567] | 0.021 ± 0.006 | 1.4 ± 0.2 | 1.6 ± 1 | 2 ± 1 | 1.3 | 0.022 ± 0.006
2 | O=S(=O)(O)c1ccc(N=C2C=CC(=C(c3ccc(Nc4ccc(S(=O)(=O)O)cc4)cc3)c3ccc(Nc4ccc(S(=O)(=O)O)cc4)cc3)C=C2)cc1 [methyl blue] | 4 ± 1 | 53 ± 4 | 15 ± 5 | 4 ± 1 | 108 | 4 ± 1
3 | O=C(NCC12CC3CC(CC(C3)C1)C2)c1cc(CCCNCCCO)ccc1Cl [AZD9056] | 0.012 ± 0.001 | 82 ± 5 | 47 ± 9 | 29 ± 15 | 3 | 0.3 ± 0.1
4 | Clc1cccc(-n2nnnc2NCc2ccccc2Oc2ccccn2)c1Cl [A839977] | 0.0032 ± 0.0006 | 67 ± 6 | 6.7 ± 2 | 1.4 ± 0.3 | 1 | 0.116 ± 0.013
5 | CN1C(=O)CC[C@H]1C(=O)NCc1cccc(C(F)(F)F)c1Cl [GSK1482160] | 1.3 ± 0.4 | 69 ± 4 | 45 ± 6 | 29 ± 9 | 81 | 3.6 ± 0.5
6 | Clc1cccc(-c2nnnn2Cc2cccnc2)c1Cl [A438079] | 0.11 ± 0.09 | 81 ± 5 | 48 ± 15 | 50 ± 11 | 6.6 | 0.55 ± 0.113
